pEC50: −log10 of the molar value. Read-outs that look alike come from different tables or passages of the source. Non-standard residues stand in square brackets, D forms with d. Residues, ends and D or L forms follow the SMILES beside them. sY = N[C@@H](Cc1ccc(OS(=O)(=O)O)cc1)C(=O)O
How the values were obtained:
apCCKR1 = target: T1, apCCKR1 (Aplysia californica, UniProt A0ABM1AF30); assay: IP1 accumulation assay, apCCKR1 in CHO-K1 cells; format: cell-based; details: CHO-K1 cells transfected with receptor and promiscuous Gαq; for EC50: log[EC50] with negative sign, mean ± SD, at least three independent experiments, SD, read-out: apCCKR1: log[EC50] (converted); for pEC50: average of at least three independent experiments, read-out: apCCKR1: EC50
T1 sequence (A0ABM1AF30 1-261): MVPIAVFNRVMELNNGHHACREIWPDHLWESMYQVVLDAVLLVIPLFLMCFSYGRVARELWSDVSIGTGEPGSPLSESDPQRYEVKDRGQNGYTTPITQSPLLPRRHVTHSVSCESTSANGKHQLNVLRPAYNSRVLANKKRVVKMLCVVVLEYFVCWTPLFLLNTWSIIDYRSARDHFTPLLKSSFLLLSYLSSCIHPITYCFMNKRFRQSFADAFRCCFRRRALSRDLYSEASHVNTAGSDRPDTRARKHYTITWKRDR
Method: We tested receptor activation using the IP1 (inositol monophosphate) accumulation assay that measures IP1 generated in the Gαq pathway (see STAR Methods).
CHO-K1 cells were cultured in F-12K medium (Gibco, 21127–022) with 10% fetal bovine serum at 37°C in 5% CO2. Before transfection, cells were grown in 35 mm diameter tissue culture-treated dishes to 85% confluence. For transfection, 1.5 μg apCCKR plasmids or control plasmids (in pcDNA3.1(+) vector) and 1.5 μg promiscuous Gαq-family protein (in pcDNA3.1(+) vector) were mixed with 200 μL Opti-MEM (Gibco, 11058021), and 8 μL Turbofect (Thermo Fisher Scientific, R0531). This promiscuous Gαq protein contains substitutions to increase promiscuity,[148] and could bind to most GPCRs, ensuring an IP1 response when a potential ligand binds to its specific GPCR, irrespective of the GPCR’s normal association with any specific Gα proteins. The DNA mixture was incubated at room temperature for 15 min and then added dropwise to the cells in F-12K medium with 10% FBS (no antibiotics), followed by incubation at 37°C in 5% CO2 overnight. The next day, cells were detached using trypsin and reseeded in white 96-well half-area tissue culture-treated plates (Corning, 3688) at a density of 20,000 cells per well in F-12K and 10% FBS, and incubated at 37°C in 5% CO2 overnight. Activation of putative apCCK or related receptor was detected by monitoring IP1 accumulation using IPOne Detection Kit (Cisbio, 62IPAPEB), as previously described.[64],[65],[141],[149],[150]
Dose-response curves and bar graphs for experimental data were plotted using Prism software (GraphPad version 8). Data are presented as mean ± SEM of at least three independent experiments, except that LogEC50 values reported in the main text are the mean ± standard deviation (SD) from at least three independent experiments. Statistical tests were performed using Prism software. They included Student’s t-test, one-way or two-way ANOVA, as appropriate. […] Electrophysiological recordings were digitized online using AxoScope software version 10.7 (Molecular Devices, LLC, Sunnyvale, CA) and were plotted by CorelDraw version 2018 (Corel Corp., Ottawa, Canada).

Aplysia californica = assay: Feeding behavior (food intake) in intact animals after peptide injection; format: in vivo; details: for Behavioral effect (food intake), summary grade: Table S1 summary in words; for Food intake (seaweed consumed in a single meal): injection into hemocoel of apCCK solutions (10^-7 M or 10^-6 M) vs ASW, food-deprived animals
Text: To explore the role of apCCKs as satiety signals in mollusks, we examined their effects on food intake. […] The remaining four forms had no impact (Figure S9). Moreover, [sY6, sY8]-apCCK1 slowed food consumption (Figure 2E), which could stem, in part, from a shift from ingestive to egestive patterns as the meal progressed. [sY6, sY8]-apCCK1 also extended the duration to consume one strip of seaweed compared to controls (Figure 2F), further mimicking natural satiety.
Behavioral experiments were conducted in two batches, each using animals from separate shipments. In the first batch (Figure 2), animals were larger, with an average body weight of 93.3 ± 4.8 g, and were food-deprived for 7 days prior to testing. In the second batch (Figure S9), animals were smaller (average weight: 70.6 ± 4.0 g) and were food-deprived for 5 days to account for their reduced size. In each experiment, two weight-matched animals were housed in separate round net cages (17 cm diameter and 17 cm height) that were placed in a 500 L tank filled with circulating aerated ASW (14°C–16°C). To ensure that the animals were responsive to food, they were first pretested with a small piece of seaweed. After this pretest, in each pair, one animal was injected (into the hemocoel using a syringe needle) with apCCKs freshly dissolved in 1.5 mL ASW, whereas the other was injected with 1.5 mL of ASW. Three minutes later, the feeding session commenced. Animals were hand-fed seaweed (Shirako, Tokyo, Japan) cut in 1 × 10 cm strips, weighing ~0.1 g, increasing 10-fold when hydrated. This hand-feeding approach has been used in prior study of Aplysia feeding behavior.[146],[147] The consumed seaweed amount was converted to hydrated weight and normalized to the animal’s body weight. Each strip of seaweed was delivered to the mouth area with forceps. Feeding was terminated after 1 h or when animals stopped ingesting seaweed for 3 min.

| Compound | EC50 (apCCKR1) [nM] | Behavioral effect (food intake), summary grade (Aplysia californica) | Food intake (seaweed consumed in a single meal) (Aplysia californica) | pEC50 (apCCKR1) |
| --- | --- | --- | --- | --- |
| CC[C@H](C)[C@H](NC(=O)CNC(=O)[C@H](Cc1ccc(OS(=O)(=O)O)cc1)NC(=O)[C@H](CC(=O)O)NC(=O)CNC(=O)[C@H](Cc1ccc(OS(=O)(=O)O)cc1)NC(=O)[C@@H](N)CO)C(=O)NCC(=O)NCC(=O)NCC(=O)N[C@@H](CCCNC(=N)N)C(=O)N[C@@H](Cc1ccccc1)C(N)=O [[sY2, sY5]-apCCK2] (H-S[sY]GD[sY]GIGGGRF-NH2) | 331 | Weak | significant but weaker effects | – |
| CC[C@H](C)[C@H](NC(=O)CNC(=O)[C@H](Cc1ccc(O)cc1)NC(=O)[C@H](CC(=O)O)NC(=O)CNC(=O)[C@H](Cc1ccc(OS(=O)(=O)O)cc1)NC(=O)[C@@H](N)CO)C(=O)NCC(=O)NCC(=O)NCC(=O)N[C@@H](CCCNC(=N)N)C(=O)N[C@@H](Cc1ccccc1)C(N)=O [[sY2]-apCCK2] (H-S[sY]GDYGIGGGRF-NH2) | – | No effect | did not influence feeding | < 5.00 |
| CC[C@H](C)[C@H](NC(=O)CNC(=O)[C@H](Cc1ccc(OS(=O)(=O)O)cc1)NC(=O)[C@H](CC(=O)O)NC(=O)CNC(=O)[C@H](Cc1ccc(O)cc1)NC(=O)[C@@H](N)CO)C(=O)NCC(=O)NCC(=O)NCC(=O)N[C@@H](CCCNC(=N)N)C(=O)N[C@@H](Cc1ccccc1)C(N)=O [[sY5]-apCCK2] (H-SYGD[sY]GIGGGRF-NH2) | 851 | Moderate | significant but weaker effects | – |
| H-SYGDYGIGGGRF-NH2 [apCCK2] | – | No effect | did not influence feeding | < 5.00 |
